The values that follow come from US20260070945A1, “MACROCYCLIC IMMUNOMODULATORS” (Bristol-Myers Squibb Company, priority 2022, published 2026).

Molecules are shown by their SMILES. pIC50: −log10 of the molar value. Where a SMILES comes first, the peptide text is derived from it. Bridges are numbered along the chain shown (N, C = ends). [ ]: non-standard residue; d: D form. The star is where a group is joined. ξ: configuration not given here. Bip = N[C@@H](Cc1ccc(-c2ccccc2)cc1)C(=O)O; Phe(3-Me) = Cc1cccc(C[C@H](N)C(=O)O)c1; Cyclopropanecarbonyl = O=C(C1CC1)*; Val(3-OH) = CC(C)(O)[C@H](N)C(=O)O; hArg = N=C(N)NCCCC[C@H](N)C(=O)O; Cha = N[C@@H](CC1CCCCC1)C(=O)O; Cit = NC(=O)NCCC[C@H](N)C(=O)O; NMeN = CN[C@@H](CC(N)=O)C(=O)O; Thr(3ξ) = CC(O)[C@H](N)C(=O)O; 12Ado = NCCCCCCCCCCCC(=O)O; Carboxymethyl = O=C(O)C*; NMeA = CN[C@@H](C)C(=O)O; Orn = NCCC[C@H](N)C(=O)O; Aun = NCCCCCCCCCCC(=O)O; Dab = NCC[C@H](N)C(=O)O; Dap = NC[C@H](N)C(=O)O

For the assay, the target named is T1, PD-1/PD-L1 interaction (PE-labeled human PD-L1-Ig binding to Jurkat cell line over-expressing human PD-1) (Homo sapiens, UniProt Q15116).
T1 construct: expressed in transfected cells; host or cells: Jurkat
T1 sequence (Q15116 25-288): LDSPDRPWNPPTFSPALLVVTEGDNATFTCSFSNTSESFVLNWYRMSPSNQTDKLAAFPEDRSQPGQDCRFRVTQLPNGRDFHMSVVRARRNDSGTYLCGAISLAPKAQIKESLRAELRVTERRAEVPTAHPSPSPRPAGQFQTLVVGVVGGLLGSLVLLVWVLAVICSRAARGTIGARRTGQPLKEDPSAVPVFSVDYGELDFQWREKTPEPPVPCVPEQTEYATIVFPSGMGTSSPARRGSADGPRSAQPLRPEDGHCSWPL
The assay can be described thus: Jurkat-PD-1 Cell Binding High-Content Screening Assay (CBA). The settings on record: Jurkat-hPD-1 cells, PE-labeled PD-L1-Ig 20 nM final; read-out: Jurkat HPD1 PDL1 IC50. The procedure, abridged:
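Cells 8×10^3/well, DMEM + 10% FCS; cpd 2 h, 37 °C; PE–PD-L1-Ig 20 nM final, 1 h; PFA fix + Hoechst 33342, 3× dPBS wash; high-content imager.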
As for `Cc1cccc(C[C@@H]2NC(=O)[C@H](CC(=O)O)NC(=O)[C@H](Cc3ccc(OCC(=O)O)cc3)NC(=O)[C@H](CCCNC(=N)N)NC(=O)CSC[C@@H](C(=O)N[C@@H](CCN)C(=O)NCCCCCCCCCCC(=O)O)NC(=O)[C@H](C(C)O)NC(=O)[C@H](CO)NC(=O)[C@H](CC3CCCCC3)NC(=O)[C@H](CCN)NC(=O)[C@@H](CC(C)C)NC(=O)[C@H](C)N(C)C(=O)[C@H](Cc3ccc(OCC(=O)O)cc3)NC(=O)[C@H](Cc3ccc(-c4ccccc4)cc3)NC(=O)[C@H](Cc3ccc(OCC(=O)O)cc3)NC2=O)c1` (stereo partly drawn) [Example 2370] ({CH2CO}-RY(Carboxymethyl)D[Phe(3-Me)]Y(Carboxymethyl)[Bip]Y(Carboxymethyl)[NMeA][dL][Dab][Cha]S[Thr(3ξ)]C[Dab][Aun]-OH; thioether N-14), the pIC50 was 7.45.

Regarding `CC(=O)NCCCC[C@@H]1NC(=O)[C@H](Cc2ccc(-c3ccccc3)cc2)NC(=O)[C@H](C(C)C)NC(=O)[C@H](Cc2cccc(C)c2)NC(=O)[C@H](CC(=O)O)NC(=O)[C@H](Cc2ccc(OCC(=O)O)cc2)NC(=O)[C@H](Cc2ccc(OCC(=O)O)cc2)NC(=O)CSC[C@@H](C(=O)N[C@@H](CCN)C(=O)NCCCCCCCCCCC(=O)O)NC(=O)[C@H](CO)NC(=O)[C@H](C(C)O)NC(=O)[C@H](CC2CCCCC2)NC(=O)[C@H](CCN)NC(=O)[C@@H](CC(C)C)NC(=O)[C@H](C)N(C)C1=O` (stereo partly drawn) [Example 2371] ({CH2CO}-Y(Carboxymethyl)Y(Carboxymethyl)D[Phe(3-Me)]V[Bip]K(Ac)[NMeA][dL][Dab][Cha][Thr(3ξ)]SC[Dab][Aun]-OH; thioether N-14), the pIC50 was 7.57. In the case of `Cc1cccc(C[C@@H]2NC(=O)[C@H](CC(=O)O)NC(=O)[C@H](Cc3ccc(OCC(=O)O)cc3)NC(=O)[C@H](Cc3ccc(OCC(=O)O)cc3)NC(=O)CSC[C@@H](C(=O)N[C@@H](CCCCN)C(=O)NCCCCCCCCCCC(=O)O)NC(=O)[C@H](CN)NC(=O)[C@H](C(C)C)NC(=O)[C@H](CC3CCCCC3)NC(=O)[C@H](CCN)NC(=O)[C@@H](CC(C)C)NC(=O)[C@H](C)N(C)C(=O)[C@H](C(C)C)NC(=O)[C@H](Cc3ccc(-c4ccccc4)cc3)NC(=O)[C@H](C(C)C)NC2=O)c1` [Example 2376] ({CH2CO}-Y(Carboxymethyl)Y(Carboxymethyl)D[Phe(3-Me)]V[Bip]V[NMeA][dL][Dab][Cha]V[Dap]CK[Aun]-OH; thioether N-14) it was 7.68; in that of `CC(=O)NCCCC[C@@H]1NC(=O)[C@H](Cc2ccc(-c3ccccc3)cc2)NC(=O)[C@H](Cc2ccc(O)cc2)NC(=O)[C@H](Cc2cccc(C)c2)NC(=O)[C@H](CC(=O)O)NC(=O)[C@H](Cc2ccc(OCC(=O)O)cc2)NC(=O)[C@H](Cc2ccc(OCC(=O)O)cc2)NC(=O)CSC[C@@H](C(=O)NCCCCCCCCCCC(=O)O)NC(=O)[C@H](C(C)O)NC(=O)[C@H](C(C)C)NC(=O)[C@H](CC2CCCCC2)NC(=O)[C@H](CCN)NC(=O)[C@@H](CC(C)C)NC(=O)[C@H](C)N(C)C1=O` (stereo partly drawn) [Example 2379] ({CH2CO}-Y(Carboxymethyl)Y(Carboxymethyl)D[Phe(3-Me)]Y[Bip]K(Ac)[NMeA][dL][Dab][Cha]V[Thr(3ξ)]C[Aun]-OH; thioether N-14), 7.41; in that of `CC(=O)NCCCC[C@@H]1NC(=O)[C@H](Cc2ccc(-c3ccccc3)cc2)NC(=O)[C@H](C(C)C)NC(=O)[C@H](Cc2cccc(C)c2)NC(=O)[C@H](CC(=O)O)NC(=O)[C@H](Cc2ccc(OCC(=O)O)cc2)NC(=O)[C@H](CCCNC(=N)N)NC(=O)CSC[C@@H](C(=O)N[C@@H](CCN)C(=O)NCCCCCCCCCCC(=O)O)NC(=O)[C@H](C(C)O)NC(=O)[C@H](C(C)C)NC(=O)[C@H](CC2CCCCC2)NC(=O)[C@H](CCN)NC(=O)[C@@H](CC(C)C)NC(=O)[C@H](C)N(C)C1=O` (stereo partly drawn) [Example 2380] ({CH2CO}-RY(Carboxymethyl)D[Phe(3-Me)]V[Bip]K(Ac)[NMeA][dL][Dab][Cha]V[Thr(3ξ)]C[Dab][Aun]-OH; thioether N-14), 7.84. For the molecule `Cc1cccc(C[C@@H]2NC(=O)[C@H](CC(=O)O)NC(=O)[C@H](Cc3ccc(OCC(=O)O)cc3)NC(=O)[C@H](CCCNC(=N)N)NC(=O)CSC[C@@H](C(=O)N(C)[C@@H](CC(N)=O)C(=O)NCCCCCCCCCCC(=O)O)NC(=O)[C@H](C(C)O)NC(=O)[C@H](C(C)C)NC(=O)[C@H](CC3CCCCC3)NC(=O)[C@H](CCN)NC(=O)[C@@H](CC(C)C)NC(=O)[C@H](C)N(C)C(=O)[C@H](C(C)C)NC(=O)[C@H](Cc3ccc(-c4ccccc4)cc3)NC(=O)[C@H](C(C)C)NC2=O)c1` (stereo partly drawn) [Example 2381] ({CH2CO}-RY(Carboxymethyl)D[Phe(3-Me)]V[Bip]V[NMeA][dL][Dab][Cha]V[Thr(3ξ)]C[NMeN][Aun]-OH; thioether N-14), the negative logarithm of the IC50 (pIC50) is 7.47.

Regarding `Cc1cccc(C[C@@H]2NC(=O)[C@H](CC(=O)O)NC(=O)[C@H](Cc3ccc(OCC(=O)O)cc3)NC(=O)[C@H](Cc3ccc(OCC(=O)O)cc3)NC(=O)CSC[C@@H](C(=O)N[C@@H](CO)C(=O)NCCCCCCCCCCC(=O)O)NC(=O)[C@H](C(C)O)NC(=O)[C@H](C(C)O)NC(=O)[C@H](CC3CCCCC3)NC(=O)[C@H](CCN)NC(=O)[C@@H](CC(C)C)NC(=O)[C@H](C)N(C)C(=O)[C@H](CCCNC(=N)N)NC(=O)[C@H](Cc3ccc(-c4ccccc4)cc3)NC(=O)[C@H](C(C)C)NC2=O)c1` (stereo partly drawn) [Example 2383] ({CH2CO}-Y(Carboxymethyl)Y(Carboxymethyl)D[Phe(3-Me)]V[Bip]R[NMeA][dL][Dab][Cha][Thr(3ξ)][Thr(3ξ)]CS[Aun]-OH; thioether N-14), the pIC50 is 7.82. For `Cc1cccc(C[C@@H]2NC(=O)[C@H](CC(=O)O)NC(=O)[C@H](Cc3ccc(OCC(=O)O)cc3)NC(=O)[C@H](Cc3ccc(OCC(=O)O)cc3)NC(=O)CSC[C@@H](C(=O)N[C@@H](CO)C(=O)NCCCCCCCCCCC(=O)O)NC(=O)[C@H](C(C)O)NC(=O)[C@H](CN)NC(=O)[C@H](CC3CCCCC3)NC(=O)[C@H](CCN)NC(=O)[C@@H](CC(C)C)NC(=O)[C@H](C)N(C)C(=O)[C@H](CCCNC(=N)N)NC(=O)[C@H](Cc3ccc(-c4ccccc4)cc3)NC(=O)[C@H](C(C)C)NC2=O)c1` (stereo partly drawn) [Example 2384] ({CH2CO}-Y(Carboxymethyl)Y(Carboxymethyl)D[Phe(3-Me)]V[Bip]R[NMeA][dL][Dab][Cha][Dap][Thr(3ξ)]CS[Aun]-OH; thioether N-14) the value was 7.43; for `CC(=O)NCCCC[C@@H]1NC(=O)[C@H](Cc2ccc(-c3ccccc3)cc2)NC(=O)[C@H](C(C)C)NC(=O)[C@H](Cc2cccc(C)c2)NC(=O)[C@H](CC(=O)O)NC(=O)[C@H](Cc2ccc(OCC(=O)O)cc2)NC(=O)[C@H](CCCNC(=N)N)NC(=O)CSC[C@@H](C(=O)N[C@H](CCC(=O)O)C(=O)NCCCCCCCCCCCC(=O)O)NC(=O)[C@H](C(C)O)NC(=O)[C@H](C(C)C)NC(=O)[C@H](CC2CCCCC2)NC(=O)[C@H](CCN)NC(=O)[C@@H](CC(C)C)NC(=O)[C@H](C)N(C)C1=O` (stereo partly drawn) [Example 2388] ({CH2CO}-RY(Carboxymethyl)D[Phe(3-Me)]V[Bip]K(Ac)[NMeA][dL][Dab][Cha]V[Thr(3ξ)]C[dE][12Ado]-OH; thioether N-14), 8.08; for `Cc1cccc(C[C@@H]2NC(=O)[C@H](CC(=O)O)NC(=O)[C@H](Cc3ccc(OCC(=O)O)cc3)NC(=O)[C@H](CCCNC(=N)N)NC(=O)CSC[C@@H](C(=O)N[C@H](CCC(=O)O)C(=O)NCCCCCCCCCCC(=O)O)NC(=O)[C@H](C(C)O)NC(=O)[C@H](C(C)C)NC(=O)[C@H](CC3CCCCC3)NC(=O)[C@H](CCN)NC(=O)[C@@H](CC(C)C)NC(=O)[C@H](C)N(C)C(=O)[C@H](CCCNC(N)=O)NC(=O)[C@H](Cc3ccc(-c4ccccc4)cc3)NC(=O)[C@H](C(C)C)NC2=O)c1` (stereo partly drawn) [Example 2392] ({CH2CO}-RY(Carboxymethyl)D[Phe(3-Me)]V[Bip][Cit][NMeA][dL][Dab][Cha]V[Thr(3ξ)]C[dE][Aun]-OH; thioether N-14), 7.53. Turning to `Cc1cccc(C[C@@H]2NC(=O)[C@H](CC(=O)O)NC(=O)[C@H](Cc3ccc(OCC(=O)O)cc3)NC(=O)[C@H](C(C)O)NC(=O)CSC[C@@H](C(=O)N[C@@H](CCCN)C(=O)N[C@@H](CO)C(=O)NCCCCCCCCCCCC(=O)O)NC(=O)[C@H](CO)NC(=O)[C@H](C(C)(C)O)NC(=O)[C@H](CC3CCCCC3)NC(=O)[C@H](CCN)NC(=O)[C@@H](CC(C)C)NC(=O)[C@H](C)N(C)C(=O)[C@H](CCCNC(N)=O)NC(=O)[C@H](Cc3ccc(-c4ccccc4)cc3)NC(=O)[C@H](C(C)C)NC2=O)c1` (stereo partly drawn) [Example 2394] ({CH2CO}-[Thr(3ξ)]Y(Carboxymethyl)D[Phe(3-Me)]V[Bip][Cit][NMeA][dL][Dab][Cha][Val(3-OH)]SC[Orn]S[12Ado]-OH; thioether N-14), the pIC50 was 7.80. In the case of `Cc1cccc(C[C@@H]2NC(=O)[C@H](CC(=O)O)NC(=O)[C@H](Cc3ccc(OCC(=O)O)cc3)NC(=O)[C@H](CCCCNC(=N)N)NC(=O)CSC[C@@H](C(=O)N[C@@H](CCN)C(=O)NCCCCCCCCCCC(=O)O)NC(=O)[C@H](C(C)O)NC(=O)[C@H](C(C)C)NC(=O)[C@H](CC3CCCCC3)NC(=O)[C@H](CCN)NC(=O)[C@@H](CC(C)C)NC(=O)[C@H](C)N(C)C(=O)[C@H](CCCNC(=O)C3CC3)NC(=O)[C@H](Cc3ccc(-c4ccccc4)cc3)NC(=O)[C@H](Cc3ccc(O)cc3)NC2=O)c1` (stereo partly drawn) [Example 2398] ({CH2CO}-[hArg]Y(Carboxymethyl)D[Phe(3-Me)]Y[Bip][Orn](Cyclopropanecarbonyl)[NMeA][dL][Dab][Cha]V[Thr(3ξ)]C[Dab][Aun]-OH; thioether N-14) it was 7.78.

Usually pIC50 stands for the IC50 on a negative log10 scale, so that one unit is a factor of ten.
